Experimental data taken from paper PMC7849180 (Frontiers in Pharmacology, 2020).

Experiments:
[1] = Metabolic stability in liver microsomes; type: in vitro ADME, dog
Procedure: The metabolic stability of ZG0128 (the dihydrochloride monohydrate of ZG0163) was evaluated using human, monkey, dog, rat, and mouse liver microsomes as the in vitro models. The percentages of residues for ZG0128 after incubating in human, monkey, dog, rat, and mouse liver microsomes for 60 minutes was 55.5%, 63.1%, 67.1%, 80.3%, and 79.0%, respectively. The CLint values of in vivo clearance were calculated to be 24.1, 21.6, 33.4, 10.7, 26.0 mL/min/kg, respectively. Thus its was speculated that ZG0128 was a medium clearance drug in humans, monkeys, and mice, a high clearance drug in dogs, and a low clearance drug in rats.
Using UPLC-UV/Q-TOF MS, the potential metabolites of ZG0128 in various liver microsomes (human, monkey, dog, rat and mouse liver microsomes) incubation systems were identified and the metabolic pathways of ZG0128 were speculated. The main metabolite of ZG0128 in above five types of liver microsomes were primary alcohol metabolite formed by morpholine ring-opening (M3). […]

[2] = parameters: species or system Wistar rats; conditions: rat, in vivo, po
Text: Suzhou Zelgen Biopharmaceuticals Co., Ltd. Jaktinib Hydrochloride Tablets Chemical Drug Class 1 New Drug chromosomal structural aberrations in CHL cells. Therefore, the results of the chromosomal aberration test were negative.
Mouse Bone Marrow Micronucleus Test
A mouse bone marrow micronucleus test of ZG0128 has been performed. After multiple doses of ZG0128 are given to mice via oral gavage, the incidence of micronucleated polychromatic erythrocytes in the bone marrow is observed to estimate the damage to chromosomal integrity in bone marrow cells and subsequent abnormality of chromosome segregation, so as to determine the presence of genotoxicity. The results […]
were observed every day. […] The body weight of female rats was measured twice a week before pregnancy and on days 0, 2, 4, 6, 9, 12, and 15 of gestation after successful mating. The food intake of male and female rats was measured once a week before mating. After successful mating, the food intake of female rats was measured on days 0, 6, and 12 of gestation. […] In addition, the weights of testes, epididymides, prostate, and seminal vesicles were measured to calculate the organ coefficients. […] In addition, the weights of the pregnant uterus, placenta and uterus, placenta, ovaries, brain, and the total weight of live fetuses were measured. […]

[3] = Accumulated excretion recovery in urine and feces; type: in vivo, human; conditions: 200 mg jaktinib fasted
Procedure: For MAD cohorts, blood samples were collected at 0, 0.25, 0.5, 1, 1.5, 2, 3, 4, 5, 6, 8 and 12 h on day 1; 0 h on day 2, 3, 4, 6 and 7; 0, 0.25, 0.5, 1, 1.5, 2, 3, 4, 5, 6, 8, 12, 24, 36 and 48 h on day 10. In food effect cohort, blood samples were collected at 0, 0.25, 0.5, 1, 1.5, 2, 3, 4, 5, 6, 8, 12, 24, 36, 48, 72, 96 and 120 h in period one of group A; 0, 0.25, 0.5, 1, 1.5, 2, 3, 4, 5, 6, 8, 12, 24, 36 and 48 h in period two of group A and the two periods of group B. Blood samples were centrifuged at 3,000 rpm for 10 min at 2–8 °C and stored at -80 °C until liquid chromatography-mass spectrophotometry (LC-MS/MS) analysis. Urine and feces samples were collected in period one of group A of food effect cohort with the intervals 0, 0–6, 6–12, 12–24, 24–48, 48–72, 72–96, 96–120 and 0–120 h, respectively.
Urine and feces PK parameter was accumulated excretion recovery ratio from time zero to 120 h (Fe0–120h).

[4] = in vivo
Procedure: Food effect part was a two-period crossover study and conducted after finishing both SAD and MAD parts. […] For group A, the urine and feces samples for pharmacokinetic (PK) analysis were collected in the first period.
Safety was assessed according to the NCI CTCAE version 4.03, including AEs of changes in vital signs, 12-lead ECGs, abdominal ultrasound, chest X-ray, physical examination and clinical laboratory tests. Abdominal ultrasound and chest X-ray were only performed at screening. 12-lead ECGs, physical examination and clinical laboratory tests were conducted in screening and day 3 after administration in SAD cohorts; days 4, 7 and 12 in MAD cohorts; day 8 in food effect cohort. Vital signs were measured at screening and admission, 0 h (pre-dose) and 2, 6, 24, 48 h after administration in SAD cohorts; 0, 2, 6 h on day 1, 0 h on days 2, 3, 4, 7, 0, 2, 6, 24, 48 h after the last dose in MAD cohorts; 0, 2, 6, 24, 48, 72, 120 h in period 1 and 2, 6, 24, 48 h in period two in food effect cohort.

Compound | CLint of in vivo clearance [1] | percentage of residue after 60 minutes [1] | NOAEL for reproductive functions and embryonic development [2] | Fe0–120h in urine and feces, total of jaktinib and metabolites [3] | Feces-Fe0–120h, total of jaktinib and metabolites [3] | Urine-Fe0–120h, total of jaktinib and metabolites [3] | Feces-Fe0–120h, geometric mean ([3]; n = 6) | Total Fe0–120h (urine and feces) ([3]; n = 6) | Urine-Fe0–120h, geometric mean ([3]; n = 6) | treatment-related Grade 4–5 AEs [4]
Cl.Cl.O.[2H]C1([2H])COCC([2H])([2H])N1c1ccc(Nc2nccc(-c3ccc(C(=O)NCC#N)cc3)n2)cc1 [ZG0128, Jaktinib Dihydrochloride Monohydrate] | 33.4 mL/min/kg | 67.1% | 18 mg/kg | – | – | – | – | – | – | –
Jaktinib | – | – | – | 19.478% | 15.350% | 4.128% | 12.681% | 12.813% | 0.132% | Note: No treatment-related Grade 4–5 AEs observed in food effect cohorts.
